Activity calls are given as the source filed them.
Columns and labels:
H9c2 = test: cells; format: functional, cell-based; conditions: Rattus norvegicus, H9c2, Myocardium;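 also: confirmatory concentration-response retest of ultra-high-throughput screening hits for modulation of myocardial damage; cell death induced by hydrogen peroxide oxidative stress; compound pretreatment for 60 min then peroxide exposure for 2 h; potency is for protecting the cells against peroxide damage rather than for killing them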
[1] = target: Disintegrin and metalloproteinase domain-containing protein 17 (Homo sapiens, UniProt P78536); test: exosite inhibitors of ADAM17, dose response, biochemical (AID 743260)
[2] = A cytotoxicity screen of small molecule inhibitors of the PhoP region in Salmonella typhi identified in the primary screen. [Related pubchem assays: 1850, 1864, 1985 ]; format: functional
[3] = inhibitors of intracellular T. cruzi replication, confirmation, NIH3T3 host cells, beta-gal luminescence (AID 2044); format: functional, cell-based;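 also: intracellular parasites grown in NIH/3T3 mouse fibroblasts as host cells; luminescent beta-galactosidase reporter signal from transgenic T. cruzi replicating inside host cells; inhibitors lower the luminescence signal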
[4] = cytotoxicity toward NIH3T3 fibroblasts, dose response, counter-screen, cell-based, ATP luminescence, mouse fibroblasts (AID 2010); format: functional;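 also: cells exposed to compound for about 90 hours before reading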
[5] = target: T1, Microphthalmia-associated transcription factor (Homo sapiens, UniProt O75030); test: TRPM1 promoter luciferase signal decrease, dose response, MITF inhibitor project, cell-based, SK-MEL-5, cherry-picked, set 3 (AID 493073); format: functional
T1 sequence (O75030 whole entry): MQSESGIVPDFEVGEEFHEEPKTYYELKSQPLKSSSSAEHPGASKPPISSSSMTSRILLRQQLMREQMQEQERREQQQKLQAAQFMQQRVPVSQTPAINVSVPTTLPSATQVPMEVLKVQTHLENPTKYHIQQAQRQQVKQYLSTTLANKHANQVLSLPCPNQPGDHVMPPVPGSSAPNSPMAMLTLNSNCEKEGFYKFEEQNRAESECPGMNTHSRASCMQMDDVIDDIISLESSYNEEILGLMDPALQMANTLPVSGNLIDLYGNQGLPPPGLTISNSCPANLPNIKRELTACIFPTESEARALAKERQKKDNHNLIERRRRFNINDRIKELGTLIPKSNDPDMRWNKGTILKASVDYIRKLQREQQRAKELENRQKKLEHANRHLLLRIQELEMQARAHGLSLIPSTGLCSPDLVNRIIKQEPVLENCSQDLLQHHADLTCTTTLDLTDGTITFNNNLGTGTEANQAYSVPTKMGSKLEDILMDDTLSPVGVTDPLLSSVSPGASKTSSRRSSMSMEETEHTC

cells [6] = format: functional
cells [7] = test: cells
[8] = A549 cell cytotoxicity, dose response, cytotoxicity control, plate reader, cherry-pick, antagonist series (AID 743412); format: functional, cell-based
[9] = HepG2 cell cytotoxicity, dose response, cytotoxicity control, plate reader, cherry-pick, antagonist series (AID 743416); format: functional, cell-based
[10] = HEK293 cell cytotoxicity, dose response, cytotoxicity control, plate reader, cherry-picked samples (AID 743446); format: functional, cell-based
Caspase-6 = target: T2, Caspase-6 (Homo sapiens, UniProt P55212); test: human caspase-6 inhibitors, dose response, biochemical, VEID-R110 fluorescence, cherry-pick (AID 720632)
T2 sequence (P55212 whole entry): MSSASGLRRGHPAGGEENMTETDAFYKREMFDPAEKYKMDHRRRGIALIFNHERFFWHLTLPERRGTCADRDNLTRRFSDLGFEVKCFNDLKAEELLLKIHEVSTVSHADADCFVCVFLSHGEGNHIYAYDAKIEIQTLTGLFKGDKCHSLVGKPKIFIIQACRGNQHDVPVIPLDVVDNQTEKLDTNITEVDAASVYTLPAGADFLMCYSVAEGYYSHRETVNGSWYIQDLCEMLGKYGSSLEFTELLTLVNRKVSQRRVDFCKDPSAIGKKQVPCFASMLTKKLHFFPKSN

[11] = HEp-2 cell cytotoxicity, dose response, cytotoxicity control for RSV inhibitor project, HTS (AID 2410); format: functional; conditions: human respiratory syncytial virus
[12] = target: T3, Long-chain-fatty-acid--AMP ligase FadD28 (Mycobacterium tuberculosis, UniProt P9WQ59); test: Fluorescence polarization aasay to screen for inhibitors that compete for the binding of FadD28 to a bisubstrate Measured in Biochemical System Using Plate Reader - 2147-01_Inhibitor_Dose_CherryPick_Activity.; format: functional, Mycobacterium tuberculosis H37Rv
T3 sequence (P9WQ59 whole entry): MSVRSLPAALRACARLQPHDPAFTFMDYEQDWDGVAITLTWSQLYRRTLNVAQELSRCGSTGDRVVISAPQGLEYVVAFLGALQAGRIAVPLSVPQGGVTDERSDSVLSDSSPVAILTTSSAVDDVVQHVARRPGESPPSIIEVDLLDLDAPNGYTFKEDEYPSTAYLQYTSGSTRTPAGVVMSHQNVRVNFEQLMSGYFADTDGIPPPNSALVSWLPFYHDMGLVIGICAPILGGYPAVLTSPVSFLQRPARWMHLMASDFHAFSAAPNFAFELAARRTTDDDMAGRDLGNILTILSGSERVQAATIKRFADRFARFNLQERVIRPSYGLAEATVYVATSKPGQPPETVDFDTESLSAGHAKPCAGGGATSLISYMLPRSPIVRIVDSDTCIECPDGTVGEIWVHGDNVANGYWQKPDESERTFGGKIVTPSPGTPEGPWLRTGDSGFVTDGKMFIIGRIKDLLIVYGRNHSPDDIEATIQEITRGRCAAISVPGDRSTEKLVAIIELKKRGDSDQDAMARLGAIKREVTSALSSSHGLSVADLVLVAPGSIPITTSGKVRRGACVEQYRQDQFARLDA

[13] = target: T4, RNA-binding protein pos-1 (Caenorhabditis elegans, UniProt G5EF15); test: inhibitors of POS-1/mex-3 RNA binding, dose response, biochemical, fluorescence polarization (AID 1964);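 also: purified POS-1 fused to maltose binding protein made in E. coli; potency of compounds blocking POS-1 binding to fluorescent RNA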
T4 sequence (G5EF15 whole entry): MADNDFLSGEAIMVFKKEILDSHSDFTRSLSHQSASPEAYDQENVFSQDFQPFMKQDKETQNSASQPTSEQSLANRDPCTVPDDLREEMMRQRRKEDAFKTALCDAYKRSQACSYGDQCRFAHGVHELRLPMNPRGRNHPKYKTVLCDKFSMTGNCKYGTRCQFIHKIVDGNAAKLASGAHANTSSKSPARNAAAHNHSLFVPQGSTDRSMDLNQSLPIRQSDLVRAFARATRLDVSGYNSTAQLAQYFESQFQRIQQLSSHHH

[14] = target: T5, Zinc finger protein mex-5 (Caenorhabditis elegans, UniProt Q9XUB2); test: MEX-5/TCR-2 RNA interaction inhibitors, dose response, biochemical, C. elegans, fluorescence polarization (AID 1960)
T5 sequence (Q9XUB2 whole entry): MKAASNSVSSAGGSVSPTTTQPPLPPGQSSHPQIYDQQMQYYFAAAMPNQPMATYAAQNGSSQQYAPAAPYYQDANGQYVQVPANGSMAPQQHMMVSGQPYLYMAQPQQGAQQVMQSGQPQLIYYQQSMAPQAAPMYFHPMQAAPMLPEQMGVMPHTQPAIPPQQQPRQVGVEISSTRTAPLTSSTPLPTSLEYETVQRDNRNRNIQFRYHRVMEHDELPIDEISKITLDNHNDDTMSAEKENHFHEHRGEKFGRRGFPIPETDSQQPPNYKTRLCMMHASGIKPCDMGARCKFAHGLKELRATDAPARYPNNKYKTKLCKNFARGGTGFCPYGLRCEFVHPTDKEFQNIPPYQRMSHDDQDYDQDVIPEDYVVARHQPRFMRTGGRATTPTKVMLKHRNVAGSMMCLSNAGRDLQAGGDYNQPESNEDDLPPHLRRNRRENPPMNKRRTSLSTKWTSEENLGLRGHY

Protein Tat = target: T6, Protein Tat (Human immunodeficiency virus type 1 group M subtype B (isolate HXB2)(HIV-1), UniProt P04608); format: functional;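 also: tat binding to TAR RNA read out by fluorescence polarization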
T6 sequence (P04608 whole entry): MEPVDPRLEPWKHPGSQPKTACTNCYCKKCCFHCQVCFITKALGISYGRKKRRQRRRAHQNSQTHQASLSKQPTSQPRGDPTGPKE

[15] = LGR2 antagonists, dose response, cell-based, HEK293, CRE-luciferase reporter, cherry pick, set 2 (AID 743343); format: functional;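 also: transfected cells were stimulated with diluted bursicon conditioned medium after compound addition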
[16] = MC4R antagonists, dose response, counter-screen for LGR2 antagonist project, cell-based, plate reader, cherry pick (AID 743444); format: functional;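 also: transfected HEK 293 cells stimulated with alpha-MSH peptide; potency of inhibitors of the alpha-MSH evoked signal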
[17] = THP-1 cell cytotoxicity, dose response, cytotoxicity control for Vif-APOBEC3G degradation inhibitor project, THP-1 cells (AID 1117359); format: functional; conditions: Human immunodeficiency virus 1, THP-1

Sequence of Disintegrin and metalloproteinase domain-containing protein 17 (P78536 whole entry, the tested form may be a part): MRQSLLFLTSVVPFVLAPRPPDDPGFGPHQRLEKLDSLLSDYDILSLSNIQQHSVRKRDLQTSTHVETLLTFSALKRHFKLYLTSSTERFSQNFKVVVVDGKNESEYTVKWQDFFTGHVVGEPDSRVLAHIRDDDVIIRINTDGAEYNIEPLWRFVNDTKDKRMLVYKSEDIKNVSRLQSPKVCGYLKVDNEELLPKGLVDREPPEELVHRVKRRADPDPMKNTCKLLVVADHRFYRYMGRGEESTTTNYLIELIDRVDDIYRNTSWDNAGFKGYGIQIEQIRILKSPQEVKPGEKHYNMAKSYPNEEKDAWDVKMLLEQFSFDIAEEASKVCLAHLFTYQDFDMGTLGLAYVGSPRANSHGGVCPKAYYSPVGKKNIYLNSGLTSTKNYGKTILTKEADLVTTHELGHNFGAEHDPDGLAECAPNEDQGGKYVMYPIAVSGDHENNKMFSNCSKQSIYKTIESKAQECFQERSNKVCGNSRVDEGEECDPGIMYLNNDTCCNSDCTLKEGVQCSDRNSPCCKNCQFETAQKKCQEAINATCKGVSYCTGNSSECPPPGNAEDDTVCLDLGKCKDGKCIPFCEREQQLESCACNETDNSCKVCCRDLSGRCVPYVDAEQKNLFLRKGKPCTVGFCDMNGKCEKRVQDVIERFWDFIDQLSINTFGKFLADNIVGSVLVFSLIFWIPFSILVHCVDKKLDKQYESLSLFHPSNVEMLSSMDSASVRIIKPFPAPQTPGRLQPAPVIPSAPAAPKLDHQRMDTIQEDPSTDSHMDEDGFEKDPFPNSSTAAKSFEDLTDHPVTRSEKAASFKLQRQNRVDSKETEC

SMILES: O=C1OCCN1C(=O)[C@H]1[C@H](c2ccc([N+](=O)[O-])cc2)C(c2ccccc2)=NN1c1ccc(Br)cc1
- IC50 (H9c2): 15.2 µM (active)
- IC50 [1]: > 69.5 µM (inactive)

SMILES: Cc1ccc(OCC(=O)N/N=C/c2ccc([N+](=O)[O-])o2)cc1
- EC50 [2]: > 50 µM (active)
- EC50 [3]: < 0.1 µM (active)
- EC50 [4]: > 60 µM (not active)
- AC50 [5]: 8.9 µM (active)
- IC50 (cells [6]): 3.01 µM (active)
- EC50 (cells [7]): 0.078 µM (active)

SMILES: CC(C)(C)c1nc2ccc(Cl)cn2c1CC1CCCCC1
- AC50 [8]: > 52 µM (inactive)
- AC50 [9]: > 52 µM (inactive)
- AC50 [10]: > 52 µM (inactive)

SMILES: O=C(NN1C(=O)C2CC=C(Cl)CC2C1=O)c1ccncc1 (stereo not given)
- AC50 (Caspase-6): 16.5 µM (active)

SMILES: CCc1ccccc1N=C(S)N(Cc1cccc(C)c1)c1cccnc1
- EC50 [2]: > 50 µM (active)

SMILES: O=C1CCCC2=C1C(c1ccc(Cl)cc1)C1C(=O)c3ccccc3C1=N2 (stereo not given)
- CC50 [11]: 17 µM (active)
- AC50 [12]: > 100 µM (inactive)

SMILES: Cc1cccc(N2C(=O)/C(=C/c3ccc(CN(CCC#N)S(C)(=O)=O)o3)C(=O)NC2=S)c1
- EC50 [13]: 67 µM (active)
- EC50 [14]: 41.2 µM (active)
- IC50 (Protein Tat): > 100 µM (active)

SMILES: Cc1ccsc1/C=N\NC(=O)c1[nH]nc2c1CCC2
- AC50 [8]: 3.65 µM (active)
- AC50 [9]: 4.37 µM (active)
- AC50 [15]: 6.59 µM (active)
- AC50 [16]: 7.75 µM (active)
- AC50 [10]: 16.4 µM (active)

SMILES: Cc1ccc(S(=O)(=O)NCCC(=O)N2CCN(C/C=C/c3ccccc3)CC2)cc1
- CC50 [17]: > 40 µM (active)

SMILES: Cn1cccc1/C=C1/C(=O)NC(=O)N(Cc2ccc(F)cc2)C1=O
- CC50 [17]: > 40 µM (active)

Reference: ChEMBL document CHEMBL1201862, “PubChem BioAssay data set” (2004)
